Reference: patent publication US20240041890A1, “ANTI-HAIR-LOSS COMPOSITION” (WELLA GERMANY GMBH, priority 2020, published 2024)

Legend:
[1] = system: hair follicles in human full thickness scalp skin punches; assay: Microscopic hair cycle staging and hair cycle score in ex vivo cultured scalp skin; assay type: cell-based; settings: for hair cycle score ± SEM: 100 = anagen, 200 = early catagen, 300 = mid catagen, 400 = late catagen, lower number = more hairs in anagen; for % of hair follicles in anagen phase / % of hair follicles in early catagen phase: two topical treatments (day 1 and 3), evaluated after 5 days of ex vivo culture
Description: Human full thickness scalp skin punches (6 mm diameter) with hair from the occipital region were obtained from a donor. The dissected human punches were cultured at 37° C. with 5% CO2 in a minimal media of William's E media (Gibco, Life Technologies) supplemented with 10 ng/ml hydrocortisone (Sigma Aldrich), 10 μg/ml insulin (Sigma Aldrich) and 1% penicllin/streptomycin (Gibco) to make William's Complete Media (WCM) modified as previously described (Edelkamp et al., Molecular Dermatology 2020, Langan et al., Exp Dermatol 2015). After 24 h resting culture (day 0), two topical treatments were Performed (day 1 and 3). The medium was changed at day 3. Punches were embedded in OCT Compound (Optimal Cutting Temperature Compound) after 5 days (day 5) of ex vivo culture and cryosectioned (7 μm sections). The experimental groups for the topical treatments are outlined in Table 3.
Hair cycle staging and hair cycle score are perfomed at the end of the culture and can be determined according to several established macroscopic and microscopic paremeters (Langan et al., Exp Dermatol 2015; Oh et al., JID 2016).
Hair follicles are microscopically evaluated for the hair cycle staging using Masson-Fontana histochemistry and Ki-67/TUNEL immunostaining as previously described (Kloepper at al., Exp Dermatol 2010; Langan et al., Exp Dermatol 2015). For each experimental group, the percentage of hair follicles in each hair cycle phase was calculated and is shown below.

human hair follicles = settings: by decreasing apoptosis and increasing the production of growth factor IGF-1; cited from earlier work
[2] = target: T1, olfactory receptor OR2AT4 (Homo sapiens, UniProt A6NND4); settings: OR2AT4 expressed in the epithelium of human hair follicles; cited from earlier work
T1 sequence (A6NND4 1-320): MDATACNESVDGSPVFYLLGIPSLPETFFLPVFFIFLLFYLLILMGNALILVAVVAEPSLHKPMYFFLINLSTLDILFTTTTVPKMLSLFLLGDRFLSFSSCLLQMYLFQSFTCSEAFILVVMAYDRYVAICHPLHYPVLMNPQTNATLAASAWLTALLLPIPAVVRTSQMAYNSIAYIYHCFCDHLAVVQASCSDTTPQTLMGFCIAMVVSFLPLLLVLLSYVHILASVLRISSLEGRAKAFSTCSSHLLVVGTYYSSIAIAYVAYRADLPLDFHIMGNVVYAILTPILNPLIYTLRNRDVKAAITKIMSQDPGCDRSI

Nc1cc(N2CCCCC2)nc(N)[n+]1[O-] [#5 Minox), Minoxidil]
hair cycle score ± SEM [1]: 123.1 ± 12.16 arbitrary units
% of hair follicles in anagen phase [1]: 77%
% of hair follicles in early catagen phase [1]: 23%

CC1=CCC(CCC(C)C(C)O)C1(C)C (stereo not drawn) [#2 (Sand), 3-methyl-5-(2,2,3-trimethylcyclopent-3-en-1-yl)pentan-2-ol]
hair cycle score ± SEM [1]: 137.5 ± 12.5 arbitrary units
effect on anagen (in words) ([1]; topical application on ex vivo cultured scalp skin): prolongs anagen
% of hair follicles in anagen phase [1]: 63%
% of hair follicles in early catagen phase [1]: 38%
effect on hair growth ex vivo (human hair follicles): prolongs hair growth ex vivo
effect on the olfactory receptor OR2AT4 [2]: stimulatory effect
